Results on 2 molecules are retold here after patent publication US10882843B2, “5-aminopyrazole carboxamide derivative as BTK inhibitor and preparation method and pharmaceutical composition thereof” (SUZHOU SINOVENT PHARMACEUTICALS CO., LTD., priority 2016, dated 2021).

Some results are limits rather than exact numbers.

Experiment [1] relates to diffuse large B-cell lymphoma cell line TMD-8. The experiment is described as follows: Pharmacodynamic assay, TMD-8 xenograft in NOD.SCID mice. Particulars: p.o. daily for 21 days. The experiment is classed as in vivo. The protocol:
Severe immunodeficiency NOD.SCID mice were purchased from Beijing Vital River Laboratory Animal Technology Co., Ltd., and were housed in SPF grade animal room. After TMD-8 cells were cultured to the sufficient amount, the cells were collected by centrifugation and washed twice with PBS. Finally, the cells were resuspended in serum-free RPMI 1640 medium plus Matrigel (1:1 v/v). 0.2 ml of cell suspension was injected subcutaneously on the right flank of each mouse using 1 ml syringe and 25 G syringe needle. The tumor size was measured with a caliper after about one week post injection. The tumor volume was calculated according to the following formula: tumor volume=(length×width^2)/2. When the tumor volume reached about 100-200 mm^3, the mice were grouped and p.o. administered daily for 21 days.

A further experiment addresses T1, ITK (Homo sapiens, UniProt Q08881).
T1 sequence (Q08881 1-620): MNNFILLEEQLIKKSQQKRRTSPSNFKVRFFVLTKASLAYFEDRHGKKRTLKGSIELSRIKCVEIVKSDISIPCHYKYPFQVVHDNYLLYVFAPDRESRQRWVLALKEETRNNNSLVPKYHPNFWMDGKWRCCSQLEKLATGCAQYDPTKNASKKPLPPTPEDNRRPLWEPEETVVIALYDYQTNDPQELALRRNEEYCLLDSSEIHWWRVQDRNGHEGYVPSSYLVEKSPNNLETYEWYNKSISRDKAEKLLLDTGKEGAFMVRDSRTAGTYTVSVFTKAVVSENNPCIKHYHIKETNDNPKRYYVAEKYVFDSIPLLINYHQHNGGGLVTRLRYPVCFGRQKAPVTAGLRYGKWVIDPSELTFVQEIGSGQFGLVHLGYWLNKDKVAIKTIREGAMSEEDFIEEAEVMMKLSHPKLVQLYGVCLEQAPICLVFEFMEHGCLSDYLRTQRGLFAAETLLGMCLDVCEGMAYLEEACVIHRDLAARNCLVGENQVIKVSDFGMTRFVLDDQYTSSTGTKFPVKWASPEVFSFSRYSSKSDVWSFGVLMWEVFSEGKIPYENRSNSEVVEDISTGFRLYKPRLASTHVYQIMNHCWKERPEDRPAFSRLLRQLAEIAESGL
The experiment is described as follows: In vitro kinase selectivity assay, ITK (TR-FRET). The experiment is classed as biochemical. Particulars: read-out: ITK kinase inhibitory activity grade. Here is the method:
(§1) The assay platform for EGFR and ITK kinase activities was established using time-resolved fluorescence resonance energy transfer-based method; the assay platform for LCK, SRC and LYN kinase activities was established using Z′-Lyte method; and the assay platform for TEC and JAK3 kinase activities was established using Lance Ultra method. The inhibitory effects of the compounds disclosed herein on different kinase activities were tested separately for each compound at 11 concentrations. The IC50 value of each compound was calculated using Graphpad Prism software.
(In general: TR-FRET usually uses a lanthanide donor and a delayed reading to cut background.)

Another experiment has as its target EGFR (Homo sapiens, UniProt P00533). The experiment is described as follows: In vitro kinase selectivity assay, EGFR (TR-FRET). The experiment is classed as biochemical. Particulars: read-out: EGFR kinase inhibitory activity grade. The protocol: as §1
Another experiment concerns the target T2, TEC (Homo sapiens, UniProt P42680).
T2 sequence (P42680 1-631): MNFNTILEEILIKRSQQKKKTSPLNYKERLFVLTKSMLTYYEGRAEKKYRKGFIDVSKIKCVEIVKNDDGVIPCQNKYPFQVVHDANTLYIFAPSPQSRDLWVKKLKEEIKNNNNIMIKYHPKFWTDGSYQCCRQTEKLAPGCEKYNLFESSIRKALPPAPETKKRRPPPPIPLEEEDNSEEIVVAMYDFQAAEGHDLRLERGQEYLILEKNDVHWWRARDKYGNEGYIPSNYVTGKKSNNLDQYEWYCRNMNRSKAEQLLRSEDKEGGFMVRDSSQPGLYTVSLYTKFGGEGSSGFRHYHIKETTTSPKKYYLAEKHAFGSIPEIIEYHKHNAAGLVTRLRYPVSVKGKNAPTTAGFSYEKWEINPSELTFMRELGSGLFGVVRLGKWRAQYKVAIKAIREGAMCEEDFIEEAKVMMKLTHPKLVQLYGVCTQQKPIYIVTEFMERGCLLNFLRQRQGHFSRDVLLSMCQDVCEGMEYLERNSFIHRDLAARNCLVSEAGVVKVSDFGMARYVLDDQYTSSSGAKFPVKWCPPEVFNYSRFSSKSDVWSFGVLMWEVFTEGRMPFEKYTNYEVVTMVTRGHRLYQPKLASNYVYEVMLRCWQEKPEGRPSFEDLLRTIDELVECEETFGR
The experiment is described as follows: In vitro kinase selectivity assay, TEC (Lance Ultra). The experiment is classed as biochemical. The following applies: read-out: TEC kinase inhibitory activity grade. The protocol: as §1

The next experiment has as its target SRC (Homo sapiens, UniProt P12931). Briefly: In vitro kinase selectivity assay, SRC (Z'-Lyte). The following applies: read-out: SRC kinase inhibitory activity grade. The experiment is classed as biochemical. Here is the method: as §1
The target of another experiment is LCK (Homo sapiens, UniProt P06239). Briefly: In vitro kinase selectivity assay, LCK (Z'-Lyte). The experiment is classed as biochemical. Particulars: read-out: LCK kinase inhibitory activity grade. The protocol:
as §1

The next experiment deals with Recombinant Btk (Homo sapiens, UniProt Q06187). The experiment is described as follows: Kinase activity (BTK) inhibition assay, TR-FRET. The experiment is classed as biochemical. Particulars: read-out: BTK kinase inhibitory activity grade (A/B/C). Here is the method: Kinase Activity (BTK) Inhibition Assay
Chain of Recombinant Btk (Q06187 whole entry): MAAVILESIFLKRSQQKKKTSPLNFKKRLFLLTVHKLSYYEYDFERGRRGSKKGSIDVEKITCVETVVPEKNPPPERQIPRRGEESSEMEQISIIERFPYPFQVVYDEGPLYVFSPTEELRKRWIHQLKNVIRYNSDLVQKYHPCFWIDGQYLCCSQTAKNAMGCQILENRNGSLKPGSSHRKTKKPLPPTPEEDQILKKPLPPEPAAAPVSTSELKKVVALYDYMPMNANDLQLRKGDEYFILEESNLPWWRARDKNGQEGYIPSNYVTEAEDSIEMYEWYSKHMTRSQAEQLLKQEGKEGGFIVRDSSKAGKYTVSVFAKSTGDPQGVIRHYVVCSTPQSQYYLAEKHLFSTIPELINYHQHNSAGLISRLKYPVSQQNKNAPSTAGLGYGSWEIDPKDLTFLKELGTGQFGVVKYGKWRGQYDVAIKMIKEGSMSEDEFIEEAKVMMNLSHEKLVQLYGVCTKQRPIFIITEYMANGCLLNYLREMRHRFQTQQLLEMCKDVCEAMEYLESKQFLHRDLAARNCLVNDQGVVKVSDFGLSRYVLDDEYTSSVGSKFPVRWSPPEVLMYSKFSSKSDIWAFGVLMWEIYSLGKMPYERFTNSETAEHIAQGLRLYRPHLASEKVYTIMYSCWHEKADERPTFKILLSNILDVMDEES
The inhibitory effects of the compounds disclosed herein on BTK kinase activity were tested in an assay based on a time resolved fluorescence resonance energy transfer (TR-FRET) method. Recombinant Btk was pre-incubated with the compound disclosed herein in an assay buffer containing 50 mM. Tris pH 7.4, 10 mM MgCl2, 2 mM MnCl2, 0.1 mM EDTA, 1 mM DTT, 20 nM SEB, 0.1% BSA, 0.005% tween-20 at room temperature for 1 hour. The reaction was initiated by the addition of ATP (at the ATP Km concentration) and the peptide substrate (Biotin-[…]-NH2). After incubation for 1 hour at room temperature, an equal volume of stop solution containing 50 mM HEPES pH 7.0, 800 mM KF, 20 mM EDTA, 0.1% BSA, p-Tyr66 antibody linked with Eu cryptate and streptavidin-labeled XL665 was added to stop the reaction. The plate was incubated for an additional hour at room temperature and then the TR-FRET signal was read on a BMG PHERAstar FS instrument (ex337 nm, em 620 nm/665 nm). Based on the ratio of the signal of fluorescence at […] to 665 nm, the enzyme activity was calculated with an increased compound concentration. IC50 of each compound was obtained by fitting the data to the four-parameter equation of Graphpad Prism software.

A further experiment has as its target LYN (Homo sapiens, UniProt P07948). Briefly: In vitro kinase selectivity assay, LYN (Z'-Lyte). The experiment is classed as biochemical. Particulars: read-out: LYN kinase inhibitory activity grade. Here is the method:
as §1

Chain of LCK (P06239 whole entry, species assumed): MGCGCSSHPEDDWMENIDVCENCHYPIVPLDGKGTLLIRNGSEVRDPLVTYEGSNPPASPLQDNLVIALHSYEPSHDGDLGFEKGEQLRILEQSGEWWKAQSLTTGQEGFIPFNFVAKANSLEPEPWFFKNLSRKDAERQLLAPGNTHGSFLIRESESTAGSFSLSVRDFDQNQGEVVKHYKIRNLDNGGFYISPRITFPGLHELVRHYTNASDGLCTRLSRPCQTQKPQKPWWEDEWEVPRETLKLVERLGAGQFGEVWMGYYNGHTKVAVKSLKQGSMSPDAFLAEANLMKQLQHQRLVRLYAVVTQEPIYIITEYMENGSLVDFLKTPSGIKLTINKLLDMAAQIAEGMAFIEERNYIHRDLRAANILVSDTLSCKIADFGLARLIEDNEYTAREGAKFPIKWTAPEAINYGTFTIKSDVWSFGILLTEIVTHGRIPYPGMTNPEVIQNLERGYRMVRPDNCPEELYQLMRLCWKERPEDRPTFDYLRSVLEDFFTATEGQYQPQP
Chain of LYN (P07948 whole entry, species assumed): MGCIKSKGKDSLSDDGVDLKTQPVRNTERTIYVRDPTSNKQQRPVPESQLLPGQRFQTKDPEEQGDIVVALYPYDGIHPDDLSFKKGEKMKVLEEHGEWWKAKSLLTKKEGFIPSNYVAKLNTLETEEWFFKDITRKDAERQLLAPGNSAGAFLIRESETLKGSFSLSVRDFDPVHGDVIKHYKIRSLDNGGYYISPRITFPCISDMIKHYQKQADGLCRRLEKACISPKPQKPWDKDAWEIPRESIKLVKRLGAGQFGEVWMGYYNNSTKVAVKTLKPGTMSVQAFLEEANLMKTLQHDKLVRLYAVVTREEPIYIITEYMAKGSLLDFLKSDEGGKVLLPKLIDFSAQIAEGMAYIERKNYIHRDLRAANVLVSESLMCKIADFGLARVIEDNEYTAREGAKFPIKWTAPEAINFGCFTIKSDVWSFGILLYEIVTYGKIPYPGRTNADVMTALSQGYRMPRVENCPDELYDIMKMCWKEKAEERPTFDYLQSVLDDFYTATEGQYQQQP
Chain of EGFR (P00533 25-1210): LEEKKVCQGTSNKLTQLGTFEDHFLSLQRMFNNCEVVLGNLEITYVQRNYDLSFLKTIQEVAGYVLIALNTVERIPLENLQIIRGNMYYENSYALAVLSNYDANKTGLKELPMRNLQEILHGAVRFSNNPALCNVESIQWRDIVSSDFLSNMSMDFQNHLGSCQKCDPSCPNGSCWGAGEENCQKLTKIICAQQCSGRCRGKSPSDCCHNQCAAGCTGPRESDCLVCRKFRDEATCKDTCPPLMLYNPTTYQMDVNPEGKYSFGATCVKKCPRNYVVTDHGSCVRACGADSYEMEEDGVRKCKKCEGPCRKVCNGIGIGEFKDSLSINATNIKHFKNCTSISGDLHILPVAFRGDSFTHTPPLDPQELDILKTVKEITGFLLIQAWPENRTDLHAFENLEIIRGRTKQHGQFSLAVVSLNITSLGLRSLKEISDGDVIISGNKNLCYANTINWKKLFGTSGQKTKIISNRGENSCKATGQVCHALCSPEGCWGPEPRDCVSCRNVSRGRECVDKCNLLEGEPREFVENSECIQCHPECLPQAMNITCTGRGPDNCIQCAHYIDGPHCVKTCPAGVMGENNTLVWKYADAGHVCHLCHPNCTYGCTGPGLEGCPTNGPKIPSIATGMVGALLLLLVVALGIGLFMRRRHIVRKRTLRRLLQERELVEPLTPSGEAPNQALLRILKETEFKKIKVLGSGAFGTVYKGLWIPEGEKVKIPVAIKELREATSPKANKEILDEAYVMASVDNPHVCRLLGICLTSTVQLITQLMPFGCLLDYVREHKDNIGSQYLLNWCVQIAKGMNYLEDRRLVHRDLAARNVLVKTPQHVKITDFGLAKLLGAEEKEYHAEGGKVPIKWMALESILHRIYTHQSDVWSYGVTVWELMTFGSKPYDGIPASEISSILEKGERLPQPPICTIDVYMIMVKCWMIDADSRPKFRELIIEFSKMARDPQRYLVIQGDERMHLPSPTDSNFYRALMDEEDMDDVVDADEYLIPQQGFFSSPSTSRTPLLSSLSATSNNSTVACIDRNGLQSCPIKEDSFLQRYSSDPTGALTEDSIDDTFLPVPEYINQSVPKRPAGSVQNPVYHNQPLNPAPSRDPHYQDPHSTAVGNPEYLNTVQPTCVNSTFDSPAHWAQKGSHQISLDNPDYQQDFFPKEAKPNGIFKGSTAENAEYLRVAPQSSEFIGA
Chain of SRC (P12931 whole entry, species assumed): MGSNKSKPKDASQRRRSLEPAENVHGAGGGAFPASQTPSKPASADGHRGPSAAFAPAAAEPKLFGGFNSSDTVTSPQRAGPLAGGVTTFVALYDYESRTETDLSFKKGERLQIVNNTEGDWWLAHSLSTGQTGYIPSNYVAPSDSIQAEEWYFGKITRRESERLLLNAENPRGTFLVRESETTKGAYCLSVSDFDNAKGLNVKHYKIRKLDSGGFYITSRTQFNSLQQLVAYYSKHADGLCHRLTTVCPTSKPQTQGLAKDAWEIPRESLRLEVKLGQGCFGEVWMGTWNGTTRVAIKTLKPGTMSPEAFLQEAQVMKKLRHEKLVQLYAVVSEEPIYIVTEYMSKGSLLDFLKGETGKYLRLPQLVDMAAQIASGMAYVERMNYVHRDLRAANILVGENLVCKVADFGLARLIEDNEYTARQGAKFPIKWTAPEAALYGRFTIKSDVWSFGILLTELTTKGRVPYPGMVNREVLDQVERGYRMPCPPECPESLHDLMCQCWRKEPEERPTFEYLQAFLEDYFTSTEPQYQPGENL

For `N#CN1C[C@H](n2nc(-c3ccc(Oc4ccc(Cl)cn4)cc3)c(C(N)=O)c2N)CCC12CC2` [WS-413, (R)-5-amino-3-(4-((5-chloropyridin-2-yl)oxy)phenyl)-1-(4-cyano-4-azaspiro[2.5]oct-6-yl)-1H-pyrazole-4-carboxamide], the “growth of TMD-8 tumor in vivo” value in experiment [1] is reported as “significantly inhibited the growth”. For the same molecule, the IC50 on ITK is > 1000 nM; on EGFR, 100 to 1000 nM; on TEC, < 100 nM; at SRC it was > 1000 nM; on LCK it was > 1000 nM; at Recombinant Btk it was < 100 nM. The IC50 on LYN was > 1000 nM.

Turning to `CC#CC(=O)N1C[C@H](n2nc(-c3ccc(Oc4ccc(Cl)cn4)cc3)c(C(N)=O)c2N)CCC12CC2` [WS-416, (R)-5-amino-1-(4-(2-butynoyl)-4-azaspiro[2.5]oct-6-yl)-3-(4-((5-chloropyridin-2-yl)oxy)phenyl)-1H-pyrazole-4-carboxamide], the “growth of TMD-8 tumor in vivo” value in experiment [1] was “significantly inhibited the growth”. Also, the IC50 on ITK was > 1000 nM; on EGFR, > 1000 nM; on TEC, < 100 nM; at SRC, > 1000 nM; at LCK, > 1000 nM; on Recombinant Btk, < 100 nM. For the same molecule, the IC50 at LYN was > 1000 nM.
